Where two headings read alike, the source gives them in different places.
Legend:
[1] = test system: S. marcescens; experiment: Serial twofold agar dilution (Mueller-Hinton agar), S. marcescens; format: cell-based; conditions: Serratia marcescens, S. marcescens A20019, Table 8
In short: (§1)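 MICs were determined by serial twofold agar dilution on Mueller-Hinton agar plates, with inoculation by Steers' apparatus. Primary screening covered 31 test organisms, and a secondary evaluation used 61 Pseudomonas aeruginosa strains.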

[2] = Mouse blood levels after subcutaneous administration; conditions: in vivo, sc, 20 mg/kg
Experimental: Mouse blood levels of BB-[…] and BB-[…] were determined by subcutaneous administration of 20 mg/kg of the penicillin to groups of three mice. Blood samples collected from orbital sinuses were assayed by the paper disk agar-diffusion method on Sarcina lutea PC1 1001 plates.

[3] = test system: E. coli; experiment: Serial twofold agar dilution (Mueller-Hinton agar), E. coli; format: cell-based; conditions: Escherichia coli
In short: as §1

[4] = test system: Pseudomonas sp.; experiment: Serial twofold agar dilution (Mueller-Hinton agar), Pseudomonas sp.; format: cell-based; conditions: Pseudomonas sp. A20358, Table 8, read-out: MIC
In short: as §1

[5] = test system: P. morganii; experiment: Serial twofold agar dilution (Mueller-Hinton agar), P. morganii; format: cell-based; conditions: Morganella morganii, P. morganii A9553, Table 8, read-out: MIC
In short: as §1

[6] = test system: E. cloacae; experiment: Serial twofold agar dilution (Mueller-Hinton agar), E. cloacae; format: cell-based; conditions: Enterobacter cloacae
In short: as §1

[7] = test system: Klebsiella sp.; experiment: Serial twofold agar dilution (Mueller-Hinton agar), Klebsiella sp.; format: cell-based; conditions: Klebsiella sp. A20452, Mueller-Hinton agar, Table 8, read-out: MIC
In short: as §1

[8] = test system: P. vulgaris; experiment: Serial twofold agar dilution (Mueller-Hinton agar), P. vulgaris; format: cell-based; conditions: Proteus vulgaris, P. vulgaris A9539, Table 8, read-out: MIC
In short: as §1

[9] = test system: S. aureus; experiment: Serial twofold agar dilution (Mueller-Hinton agar), S. aureus; format: cell-based; conditions: Staphylococcus aureus
In short: as §1

[10] = test system: P. mirabilis; experiment: Serial twofold agar dilution (Mueller-Hinton agar), P. mirabilis; format: cell-based; conditions: Proteus mirabilis, P. mirabilis A9900; Mueller-Hinton agar; Table 8; read-out: MIC
In short: as §1

[11] = test system: Pseudomonas aeruginosa; experiment: Serial twofold agar dilution (Mueller-Hinton agar), P. aeruginosa; format: cell-based; conditions: Pseudomonas aeruginosa
In short: as §1

[12] = test system: S. enteritidis; experiment: Serial twofold agar dilution (Mueller-Hinton agar), S. enteritidis; format: cell-based; conditions: Salmonella enterica, S. enteritidis A9531, Table 8, read-out: MIC
In short: as §1

[13] = test system: K. pneumoniae; experiment: Serial twofold agar dilution (Mueller-Hinton agar), K. pneumoniae; format: cell-based; conditions: Klebsiella pneumoniae, K. pneumoniae A9977, Table 8, read-out: MIC
In short: as §1

CC1(C)S[C@@H]2[C@H](NC(=O)C(C(=O)O)c3ccccc3)C(=O)N2[C@H]1C(=O)O (stereo partly drawn) [Carbenicillin, reference compound]
30 mg/L: MIC ([11]; 61 strains of P. aeruginosa, Table 9, read-out: Geometric mean of MIC)
6.3 mg/L: MIC ([3]; E. coli A9635, Table 8, read-out: MIC) | MIC [7] | MIC ([9]; S. aureus A20239, Table 8, read-out: MIC) | MIC ([9]; S. aureus BX-1633 A9606, Table 8, read-out: MIC) | MIC ([11]; Pa-5 M4865, K.C A15150, Mueller-Hinton agar, Table 9, read-out: MIC) | MIC ([11]; Pa-16 #130 A20718, Mueller-Hinton agar, Table 9, read-out: MIC)
100 mg/L: MIC ([11]; GN4925, Pa-45 GN 4925, Mueller-Hinton agar, Table 9, read-out: MIC) | MIC ([11]; P. aeruginosa A20717, Mueller-Hinton agar, Table 8, read-out: MIC) | MIC ([11]; Pa-35, Mueller-Hinton agar, Table 9, read-out: MIC) | MIC ([11]; Pa-38 A20349, Mueller-Hinton agar, Table 9, read-out: MIC) | MIC ([11]; Pa-69 A21587, Mueller-Hinton agar, Table 9, read-out: MIC)
12.5 mg/L: MIC ([11]; Pa-1 D15, Mueller-Hinton agar, Table 9, read-out: MIC) | MIC ([11]; Pa-3 1449 V.A A9930, Mueller-Hinton agar, Table 9, read-out: MIC) | MIC ([11]; Pa-17 H6, D114, Mueller-Hinton agar, Table 9, read-out: MIC) | MIC ([11]; Pa-19 A20229, Mueller-Hinton agar, Table 9, read-out: MIC) | MIC ([11]; Pa-31 A20594, Mueller-Hinton agar, Table 9, read-out: MIC) | MIC ([11]; Pa-33 A20598, Mueller-Hinton agar, Table 9, read-out: MIC) | MIC ([11]; Pa-39 A20641, Mueller-Hinton agar, Table 9, read-out: MIC)
> 100 mg/L: MIC ([3]; E. coli A20366, Table 8, read-out: MIC) | MIC ([3]; E. coli A20732, Table 8, read-out: MIC) | MIC ([3]; E. coli A20898, Table 8, read-out: MIC) | MIC [5] | MIC ([11]; Pa-6 No. 5 Levitan A15194, Mueller-Hinton agar, Table 9, read-out: MIC) | MIC ([11]; Pa-10 A21479, Mueller-Hinton agar, Table 9, read-out: MIC) | MIC ([11]; Pa-15 A20717, Mueller-Hinton agar, Table 9, read-out: MIC) | MIC ([11]; Pa-24 A20896, Mueller-Hinton agar, Table 9, read-out: MIC) | MIC ([11]; Pa-42 A21229, Mueller-Hinton agar, Table 9, read-out: MIC) | MIC ([11]; Pa-62 A21213, Mueller-Hinton agar, Table 9, read-out: MIC)
9 µg/mL: concentration at 0.5 h [2]
50 mg/L: MIC ([9]; S. aureus A15097, Table 8, read-out: MIC) | MIC ([9]; S. aureus A20701, Table 8, read-out: MIC) | MIC ([11]; ATCC19660, Pa-14 ATCC 19660 A20325, Mueller-Hinton agar, Table 9, read-out: MIC) | MIC ([11]; Pa-7 A9843, Mueller-Hinton agar, Table 9, read-out: MIC) | MIC ([11]; Pa-12 A20653, Mueller-Hinton agar, Table 9, read-out: MIC) | MIC ([11]; Pa-28 C.P.H. 10527/72, Mueller-Hinton agar, Table 9, read-out: MIC) | MIC ([11]; Pa-32 A20595, Mueller-Hinton agar, Table 9, read-out: MIC) | MIC ([11]; Pa-37 A20130, Mueller-Hinton agar, Table 9, read-out: MIC) | MIC ([11]; Pa-43 A21233, Mueller-Hinton agar, Table 9, read-out: MIC) | MIC ([11]; Pa-44 A21274, Mueller-Hinton agar, Table 9, read-out: MIC) | MIC ([11]; Pa-52 A9926, Mueller-Hinton agar, Table 9, read-out: MIC) | MIC ([11]; Pa-54 A20128, Mueller-Hinton agar, Table 9, read-out: MIC) | MIC ([11]; Pa-55 A20227, Mueller-Hinton agar, Table 9, read-out: MIC) | MIC ([11]; Pa-57 A20546, Mueller-Hinton agar, Table 9, read-out: MIC) | MIC ([11]; Pa-58 A20557, Mueller-Hinton agar, Table 9, read-out: MIC) | MIC ([11]; Pa-61 A20726, Mueller-Hinton agar, Table 9, read-out: MIC) | MIC ([11]; Pa-66 A21434, Mueller-Hinton agar, Table 9, read-out: MIC) | MIC ([11]; Pa-67 A21509, Mueller-Hinton agar, Table 9, read-out: MIC) | MIC ([11]; Pa-68 A21510, Mueller-Hinton agar, Table 9, read-out: MIC)
25 mg/L: MIC ([6]; E. cloacae A9657, Table 8) | MIC ([11]; GN315, Pa-27 GN315 A21294, Mueller-Hinton agar, Table 9, read-out: MIC) | MIC ([11]; P. aeruginosa A9843, Mueller-Hinton agar, Table 8, read-out: MIC) | MIC ([11]; P. aeruginosa A9930, Mueller-Hinton agar, Table 8, read-out: MIC) | MIC ([11]; P. aeruginosa A15150, Mueller-Hinton agar, Table 8, read-out: MIC)
0.4 mg/L: MIC ([3]; E. coli A9844, Table 8, read-out: MIC) | MIC ([3]; E. coli NIHJ, Table 8, read-out: MIC) | MIC [10] | MIC ([11]; Pa-26 PS32, Mueller-Hinton agar, Table 9, read-out: MIC)
5.8 µg/mL: concentration at 1 h [2]
3.1 mg/L: MIC [1] | MIC ([3]; E. coli Juhl A15119, Table 8, read-out: MIC) | MIC [4] | MIC ([6]; E. cloacae A9656, Table 8) | MIC ([6]; E. cloacae A9659, Table 8) | MIC ([9]; S. aureus A20240, Table 8, read-out: MIC) | MIC ([11]; Pa-18 H8, D121, Mueller-Hinton agar, Table 9, read-out: MIC) | MIC ([11]; Pa-25 A20897, Mueller-Hinton agar, Table 9, read-out: MIC) | MIC [13]
11.5 µg/mL: concentration at 0.25 h [2]
1.6 mg/L: MIC ([3]; E. coli A20520, Table 8, read-out: MIC) | MIC [8] | MIC ([11]; Pa-36, Mueller-Hinton agar, Table 9, read-out: MIC)
0.2 mg/L: MIC ([9]; S. aureus Smith A9537, Table 8, read-out: MIC)
0.8 mg/L: MIC ([3]; E. coli A20664, Table 8, read-out: MIC) | MIC [12]

— US4231928A, “Antibacterial agents” (priority 1979, dated 1980)
